Values after ≈ are worked out from the molar mass of the structure shown. Like-named read-outs stand apart in the source and are kept apart here.
Experiments:
[1] = system: E. coli strain 25922; test: MIC by broth microdilution, E. coli strain 25922; format: cell-based
Method: (§1) Bacterial isolates were cultivated from −70° C. frozen stocks by two consecutive overnight passages at 35° C. in ambient air on 5% blood agar (Remel, Lenexa, Kans.). Quality control and P. aeruginosa ATCC 27853) is from the American Type Culture Collection (ATCC; Rockville, Md.) and PAO1 was received from Dr. K. Poole.
Minimal Inhibitory Concentrations (MICs) were determined by the broth microdilution method in accordance with Clinical and Laboratories Institute (CLSI) guidelines. In brief, fresh overnight bacterial cultures were suspended in sterile saline, and adjusted to a 0.5 McFarland turbidity standard. Bacterial suspensions were then diluted in cation adjusted Mueller-Hinton Broth (MHB II; BBL) to yield a final inoculum of approximately 5×10^5 colony-forming units (CFU)/mL. A master plate of antibiotics was prepared at a concentration equivalent to hundred-fold the highest desired final concentration in 100% dimethyl sulfoxide (DMSO). The master antibiotic plate was then diluted by serial twofold dilution with a multichannel pipette. The resulting dilution series of compounds were diluted 1:10 with sterile water leading to a 10% DMSO final concentration. A volume of 10 μL of the drug dilution series was transferred to 96-well assay plates. Assay plates were inoculated with 90 μL of bacterial suspensions and incubated at 35-37° C. for 20 hrs. The assay plates were read using a microtiter plate reader (Molecular Devices) at 600 nm as well as by visual observation with a reading mirror. The lowest concentration of the compound that prevented visible growth was recorded as the MIC. Performance of the assay was monitored by testing aztreonam against laboratory quality control strains in accordance with guidelines of the CLSI.

[2] = system: E. coli containing KPC-2; test: MIC by broth microdilution, E. coli containing KPC-2 (Ec KPC2 Iso); format: cell-based; conditions: Escherichia coli, read-out: Ec KPC2 Iso (MIC), E. coli containing KPC-2 (carbapenemase from Klebsiella pneumoniae)
Method: as §1
Strain NB27273 (BW25113 pspB::Km^r) was obtained from the Keio transposon insertion collection. The strain has the pspB gene replaced by a kanamycin resistance marker (BW25113 pspB::Km^r). This strain was cured of the transposon in pspB via FLP recombinase using published methodology. The resulting strain, BW25113 pspB, was used as a host for multicopy vectors expressing key β-lactamases. Multicopy plasmids directing constitutive expression of β-lactamases were established as follows: Synthetic, codon optimized genes encoding E. coli KPC2 and SHV12 β-lactamases were made by DNA2.0 (Palo Alto, Calif.). Each of the synthetic fragments were designed to contain NotI and NcoI restriction sites at their termini, allowing ligation into a NotI/NcoI digested pET28a(+) derivative for protein expression. […] The codon optimized nucleotide sequences and relevant primer recognition information is shown below:
The PCR products were then digested with XhoI and EcoRI and ligated into similarly digested plasmid pAH63-pstS(BlaP). Plasmid pAH63-pstS(BlaP) is a derivative of plasmid pAH63 (J Bacteriol: 183(21): 6384-6393) made by cloning the TEM-1 (bla) promoter and signal peptide encoding region from plasmid pBAD (J Bacteriol. 1995 July 177(14):4121-30) into plasmid pAH63. This fragment was PCR amplified from pBAD using primer pair E192 (ttca[…]) (SEQ ID NO:13) and E194 ([…]) (SEQ ID NO:14), digested with PstI and BamHI and inserted into similarly digested plasmid pAH63. Therefore, expression of β-lactamases from pAH63-pstS(BlaP) based constructs is constitutive and the signal sequence is provided to direct these proteins to the periplasm. Plasmid pAH63 based vectors are used for insertion into the genome in single copy, however, to provide higher expression levels to allow more sensitive detection of the susceptibility of compounds to the β-lactamases, the expression inserts contained in these vectors were moved to the replicative multicopy vector pBAD-Kan (J Bacteriol. 1995 July 177(14):4121-30). To accomplish this, the inserts encompassing the β-lactamase genes, with the associated TEM promoter and signal sequences, were PCR amplified from their corresponding vectors using primer E269 (ccg[…]) (SEQ ID NO:15) and E202 (aatc[…]) (SEQ ID NO:16) for the KPC2 construct and E204 (aatc[…]) (SEQ ID NO:17) for the SHV12 construct. These fragments were then digested with XbaI and EcoRI, and each was inserted into pBAD18-kan that had been digested with the same enzymes to generate a pair of multicopy vectors expressing KPC2 and SHV12 respectively. These vectors were transformed into BW25113 pspB to generate strains NB27273-CDY0033 (expressing KPC2) and NB27273-CDY0030 (expressing SHV12). The pBAD18-kan vector also contains the TEM promoter region and signal sequence, (but lacks any intact β-lactamase genes) and was transformed into BW25113 pspB using standard protocols to generate the control strain NB27273-CDY0026. Expression of the β-lactamases was confirmed by verifying decreased susceptibility to example test antibiotics that are known substrates of KPC2 or SHV12. Susceptibility Testing
Minimal Inhibitory Concentrations (MICs) were determined by the broth microdilution method in accordance with Clinical and Laboratories Institute (CLSI) guidelines. In brief, fresh overnight bacterial cultures were suspended in sterile saline, and adjusted to a 0.5 McFarland turbidity standard. Bacterial suspensions were then diluted in cation adjusted Mueller-Hinton Broth (MHB II; BBL) to yield a final inoculum of approximately 5×10^5 colony-forming units (CFU)/mL. […]

[3] = Escherichia coli, 25922, E. coli strain 25922, read-out: Ec 25922 (MIC)
[4] = Escherichia coli, 25922, read-out: Ec 25922 (MIC)

SMILES: CC(C)(O/N=C(\C(=O)N[C@@H]1C(=O)N(S(=O)(=O)O)[C@@H]1Cn1cncn1)c1csc(N)n1)C(=O)O [Example 9, 2-(((Z)-(2-(((2R,3S)-2-((1H-1,2,4-triazol-1-yl)methyl)-4-oxo-1-sulfoazetidin-3-yl)amino)-1-(2-aminothiazol-4-yl)-2-oxoethylidene)amino)oxy)-2-methylpropanoic acid]
- MIC [1, 3]: 1 mg/L (≈ 1.99 µM)
- MIC [2]: 1 mg/L (≈ 1.99 µM)

SMILES: NCc1nn(C[C@@H]2[C@H](NC(=O)/C(=N\OC3(C(=O)O)CC3)c3csc(N)n3)C(=O)N2S(=O)(=O)O)nc1CN [Example 109, 1-(((Z)-(1-(2-aminothiazol-4-yl)-2-(((2R,3S)-2-((4,5-bis(aminomethyl)-2H-1,2,3-triazol-2-yl)methyl)-4-oxo-1-sulfoazetidin-3-yl)amino)-2-oxoethylidene)amino)oxy)cyclopropanecarboxylic acid]
- MIC [1, 3]: 0.125 mg/L (≈ 0.224 µM)
- MIC [2]: 0.25 mg/L (≈ 0.448 µM)

SMILES: CC(C)(O/N=C(\C(=O)N[C@@H]1C(=O)N(S(=O)(=O)O)[C@@H]1Cn1cc(N)cn1)c1csc(N)n1)C(=O)O [Example 35, 2-(((Z)-(2-(((2R,3S)-2-((4-amino-1H-pyrazol-1-yl)methyl)-4-oxo-1-sulfoazetidin-3-yl)amino)-1-(2-aminothiazol-4-yl)-2-oxoethylidene)amino)oxy)-2-methylpropanoic acid]
- MIC [1, 3]: 2 mg/L (≈ 3.87 µM)
- MIC [2]: 1 mg/L (≈ 1.94 µM)

SMILES: CC(NC(=N)NCCCN)c1cnn(C[C@@H]2[C@H](NC(=O)/C(=N\OC3(C(=O)O)CC3)c3csc(N)n3)C(=O)N2S(=O)(=O)O)n1 (stereo partly drawn) [Example 145, 1-(((Z)-(2-(((2R,3S)-2-((4-(1-(3-(3-aminopropyl)guanidino)ethyl)-2H-1,2,3-triazol-2-yl)methyl)-4-oxo-1-sulfoazetidin-3-yl)amino)-1-(2-aminothiazol-4-yl)-2-oxoethylidene)amino)oxy)cyclopropanecarboxylic acid]
- MIC [1, 3]: 0.5 mg/L (≈ 0.778 µM)
- MIC [2]: 0.5 mg/L (≈ 0.778 µM)

SMILES: NCCCCNCc1cnn(C[C@@H]2[C@H](NC(=O)/C(=N\OC3(C(=O)O)CC3)c3csc(N)n3)C(=O)N2S(=O)(=O)O)n1 [Example 118, 1-(((Z)-(2-(((2R,3S)-2-((4-(((4-aminobutyl)amino)methyl)-2H-1,2,3-triazol-2-yl)methyl)-4-oxo-1-sulfoazetidin-3-yl)amino)-1-(2-aminothiazol-4-yl)-2-oxoethylidene)amino)oxy)cyclopropanecarboxylic acid]
- MIC [1, 3]: 0.5 mg/L (≈ 0.832 µM)
- MIC [2]: 0.25 mg/L (≈ 0.416 µM)

SMILES: N=C(N)c1ccc(OC[C@H](O/N=C(\C(=O)N[C@@H]2C(=O)N(S(=O)(=O)O)[C@@H]2Cn2cncn2)c2csc(N)n2)C(=O)O)cc1 [Example 107, (S)-2-(((Z)-(2-(((2R,3S)-2-((1H-1,2,4-triazol-1-yl)methyl)-4-oxo-1-sulfoazetidin-3-yl)amino)-1-(2-aminothiazol-4-yl)-2-oxoethylidene)amino)oxy)-3-(4-carbamimidoylphenoxy)propanoic acid]
- MIC [1, 3]: 0.25 mg/L (≈ 0.402 µM)
- MIC [2]: 0.25 mg/L (≈ 0.402 µM)

SMILES: N=C(NCCCN)NCc1cnn(C[C@@H]2[C@H](NC(=O)/C(=N\OC3(C(=O)O)CC3)c3csc(N)n3)C(=O)N2S(=O)(=O)O)n1 [Example 119, 1-(((Z)-(2-(((2R,3S)-2-((4-((3-(3-aminopropyl)guanidino)methyl)-2H-1,2,3-triazol-2-yl)methyl)-4-oxo-1-sulfoazetidin-3-yl)amino)-1-(2-aminothiazol-4-yl)-2-oxoethylidene)amino)oxy)cyclopropanecarboxylic acid]
- MIC [1, 3]: 0.25 mg/L (≈ 0.398 µM)
- MIC [2]: 0.25 mg/L (≈ 0.398 µM)

SMILES: N=C(NCCCN)c1ccc(OC[C@H](O/N=C(\C(=O)N[C@@H]2C(=O)N(S(=O)(=O)O)[C@@H]2Cn2cncn2)c2csc(N)n2)C(=O)O)cc1 [Example 78, (S)-2-(((Z)-(2-(((2R,3S)-2-((1H-1,2,4-triazol-1-yl)methyl)-4-oxo-1-sulfoazetidin-3-yl)amino)-1-(2-aminothiazol-4-yl)-2-oxoethylidene)amino)oxy)-3-(4-(N-(3-aminopropyl)carbamimidoyl)phenoxy)propanoic acid]
- MIC [1, 3]: ≤ 0.06 mg/L
- MIC [2]: 0.125 mg/L (≈ 0.184 µM)

SMILES: CC(C)(O/N=C(\C(=O)N[C@@H]1C(=O)N(S(=O)(=O)O)[C@@H]1Cn1cc[nH]c1=O)c1csc(N)n1)C(=O)O [Example 87, 2-(((Z)-(1-(2-aminothiazol-4-yl)-2-oxo-2-(((3S,4R)-2-oxo-4-((2-oxo-2,3-dihydro-1H-imidazol-1-yl)methyl)-1-sulfoazetidin-3-yl)amino)ethylidene)amino)oxy)-2-methylpropanoic acid]
- MIC [1, 3]: 1 mg/L (≈ 1.93 µM)
- MIC [2]: 0.5 mg/L (≈ 0.966 µM)

SMILES: NCCCNCc1cn(C[C@@H]2[C@H](NC(=O)/C(=N\OC3(C(=O)O)CC3)c3csc(N)n3)C(=O)N2S(=O)(=O)O)nn1 [Example 69, 1-(((Z)-(2-(((2R,3S)-2-((4-(((3-aminopropyl)amino)methyl)-1H-1,2,3-triazol-1-yl)methyl)-4-oxo-1-sulfoazetidin-3-yl)amino)-1-(2-aminothiazol-4-yl)-2-oxoethylidene)amino)oxy)cyclopropanecarboxylic acid compound with formic acid (1:1)]
- MIC [1, 4]: 0.25 mg/L (≈ 0.426 µM)
- MIC [2]: 0.125 mg/L (≈ 0.213 µM)

SMILES: C[C@@H](O/N=C(\C(=O)N[C@@H]1C(=O)N(S(=O)(=O)O)[C@@H]1Cn1cncn1)c1csc(N)n1)C(=O)O [Example 30, (R)-2-(((Z)-(2-(((2R,3S)-2-((1H-1,2,4-triazol-1-yl)methyl)-4-oxo-1-sulfoazetidin-3-yl)amino)-1-(2-aminothiazol-4-yl)-2-oxoethylidene)amino)oxy)propanoic acid]
- MIC [1, 3]: 1 mg/L (≈ 2.05 µM)
- MIC [2]: 1 mg/L (≈ 2.05 µM)

SMILES: NCC1CN(C[C@@H]2[C@H](NC(=O)/C(=N\OC3(C(=O)O)CC3)c3csc(N)n3)C(=O)N2S(=O)(=O)O)C(=O)N1 (stereo partly drawn) [Example 122, 1-(((Z)-(2-(((2R,3S)-2-((4-(aminomethyl)-2-oxoimidazolidin-1-yl)methyl)-4-oxo-1-sulfoazetidin-3-yl)amino)-1-(2-aminothiazol-4-yl)-2-oxoethylidene)amino)oxy)cyclopropanecarboxylic acid]
- MIC [1, 3]: ≤ 0.06 mg/L
- MIC [1, 4]: 0.125 mg/L (≈ 0.229 µM)

SMILES: Nc1nc(/C(=N/OC2(C(=O)O)CC2)C(=O)N[C@@H]2C(=O)N(S(=O)(=O)O)[C@@H]2Cn2ncc(CNC3CNC3)n2)cs1 [Example 103, 1-(((Z)-(1-(2-aminothiazol-4-yl)-2-(((2R,3S)-2-((4-((azetidin-3-ylamino)methyl)-2H-1,2,3-triazol-2-yl)methyl)-4-oxo-1-sulfoazetidin-3-yl)amino)-2-oxoethylidene)amino)oxy)cyclopropanecarboxylic acid]
- MIC [1, 3]: 0.25 mg/L (≈ 0.428 µM)

— patent publication US10369138B2, “Monobactam organic compounds for the treatment of bacterial infections” (Novartis AG, priority 2014, dated 2019)
